Test results from ChEMBL document CHEMBL3822437, “N,N-Bis(glycityl)amines as anti-cancer drugs” (Bioorg Med Chem, 2016).

What was measured:
[1] = Antiproliferative activity against human LN18 cells after 48 hrs by MTT assay; format: functional, cell-based; conditions: LN-18, 48 h
[2] = Selectivity index, ratio of IC50 for human SVGp12 cells to IC50 for human LN18 cells; format: functional
[3] = Antiproliferative activity against human SVGp12 cells after 48 hrs by MTT assay; format: cell-based; conditions: SVGp12, 48 h
cells = conditions: Homo sapiens, HL-60, 48 h
Description: Antiproliferative activity against human HL60 cells after 48 hrs by MTT assay

HEK293 [4] = experiment: Selectivity index, ratio of IC50 for HEK293 cells to IC50 for human HL60 cells; format: functional
HEK293 [5] = experiment: Antiproliferative activity against HEK293 cells after 48 hrs by MTT assay; format: cell-based; conditions: Homo sapiens, HEK293, 48 h
[6] = Antiproliferative activity against human THP1 cells after 48 hrs by MTT assay; format: functional, cell-based; conditions: THP-1, 48 h

SMILES | IC50 (cells) [µM] | IC50 [1] [µM] | Ratio IC50 [2] | IC50 [3] [µM] | Ratio IC50 (HEK293 [4]) | IC50 (HEK293 [5]) [µM] | IC50 [6] [µM]
OC[C@@H](O)[C@@H](O)[C@H](O)[C@@H](O)CN(CCc1ccccc1)C[C@H](O)[C@@H](O)[C@H](O)[C@H](O)CO | 91.3 | 290 | 0.731 | 212 |  |  | 
OC[C@@H](O)[C@@H](O)[C@@H](O)CN(CCc1ccccc1)C[C@H](O)[C@H](O)[C@H](O)CO | 89.4 | 205 |  |  |  |  | 
OC[C@@H](O)[C@H](O)[C@@H](O)CN(CCc1ccccc1)C[C@H](O)[C@@H](O)[C@H](O)CO | 136 | 255 |  |  | 1.58 | 215 | 
OC[C@@H](O)[C@@H](O)[C@H](O)CN(CCc1ccccc1)C[C@@H](O)[C@H](O)[C@H](O)CO | 121 | 257 | 0.864 | 222 | 1.9 | 230 | 
CCCCCCCCCCCCCCCCN(CC[C@@H](O)[C@H](O)[C@H](O)CO)CC[C@@H](O)[C@H](O)[C@H](O)CO | 6.66 | 50.6 |  |  |  |  | 

More lines, main results first:

IC50 (cells) [µM] | SMILES | IC50 [1] [µM] | Ratio IC50 [2] | IC50 [3] [µM] | Ratio IC50 (HEK293 [4]) | IC50 (HEK293 [5]) [µM] | IC50 [6] [µM]
6.44 | CCCCCCCCCCCCCCCCN(CC[C@H](O)[C@H](O)CO)CC[C@H](O)[C@H](O)CO | 30.5 | 0.872 | 26.6 | 4.83 | 31.1 | 
108 | C[S+](C)[O-] [DIMETHYL SULFOXIDE] | 223 | 1.03 | 229 | 2.15 | 232 | 119
5.5 | COc1cccc2c1C(=O)c1c(O)c3c(c(O)c1C2=O)C[C@@](O)(C(=O)CO)C[C@@H]3O[C@H]1C[C@H](N)[C@H](O)[C@H](C)O1 [DOXORUBICIN] | 68.9 |  | 4.21 |  | 44.4 | 7.19
